Reference: patent publication US20210087533A1, “CANINE EPITHELIAL ORGANOIDS AND METHODS OF MAKING, RECOVERING, AND USE” (Iowa State University Research Foundation, Inc., priority 2019, published 2021)

Key:
TCC organoids [1] = assay: Ki-67 IHC staining (proliferation) of TCC organoids; assay type: cell-based, canine
TCC organoids [2] = assay: MTT cell viability (cytotoxicity) assay, TCC organoids; assay type: cell-based, canine; details: for effect on TCC cell viability (MTT assay): old, much passaged TCC organoids
Experimental: Transitional Cell Carcinoma (TCC) Organoid Isolation and Culture. Canine bladder cancer cells for TCC organoids were isolated from urine (TCC #1) or biopsies (TCC #2) of dogs with transitional cell carcinoma. Briefly, urine was centrifuged and washed or small biopsies were washed with 1×Complete Chelation Solution (CCS) and vortexing up to 6 times, then incubated in 20-30 mM EDTA for 1 hour at 4° C. on a rocker. FBS and CCS was added to stop EDTA chelation, mixed, and the supernatant containing cancer cells was put in a new tube. Samples were centrifuged at 150 g for 5 minutes at 4° C., resuspended in DMEM/F12, centrifuged again, and the pellet was resuspended in 120 ul […]®. […]® droplets were then plated at 30 ul/well […]®/cells on 24-well plates. Complete Media with Growth Factors (CMGF+) containing Rock inhibitor and GSK inhibitor was added for 2-3 days at 37 C, and after 2-3 days, TCC organoids were cultured in CMGF+ media without inhibitors. TCC organoids were passaged every 4-7 days with TrypLE Express to dissociate organoids to single cells.
MTT Cell Viability Assay (Cytotoxicity Assay). Organoids from healthy intestine or transitional cell carcinoma (TCC) were dissociated and plated at equal density in 30 ul/well […]® in 24-well plates in 500 ul/well CMGF+ growth medium. On Day 1-4 after passage, organoids were incubated with the indicated drug for 48 or 96 hours. Cytotoxicity was determined using 3-(4,5-dimethylthiazol-2-yl) 2,5-diphenyl tetrazolium bromide (MTT) at a final concentration of 0.5 mg/mL for 1.5 hr. After medium removal, 200 ul/well cold DMSO was used to dissolve the formazan dye crystals and absorbance was read at 570 nm using a plate reader (SpectraMax 190, Molecular Devices).
As DMSO freezes […] but it is preferable to use cold media (4° C.) to dissolve the […]®. Thus, put DMSO briefly in 4° C. fridge or −20° C. freezer and remove before it all freezes, then use cold DMSO, pipette up and down vigorously, shake the plate, put plate in freezer briefly, etc. to try to get the […]® and formazan dye crystals to dissolve.

TCC organoids [3] = assay: Morphology of treated TCC organoids; assay type: cell-based, canine; details: fenoldopam-treated TCC organoids
canine UC organoids = assay: MTT assay for metabolic activity of urine-derived UC organoids; assay type: cell-based; details: incubation for 24-48 hours
Experimental: Free-catch urine was collected from one dog at time of UC diagnosis. Samples were centrifuged and supernatant was removed. The resulting pellet was washed with phosphate-buffered saline (PBS), then incubated in complete chelating solution (CCS) with EDTA and plated in […]® for establishment of organoid culture within one week. Sub-samples of differentiated UC organoids were taken for 3-(4,5-dimethylthiazol-2-yl)-2,5-diphenyltetrazolium bromide (MTT) assay for metabolic activity assessment after incubation with chemotherapeutic agents. Remaining UC organoids were characterized with H&E, RNA in-situ hybridization (RNA-ISH), and immunohistochemistry (IHC) staining techniques.

P-gp = biological target: T1, P-gp (Canis lupus familiaris, UniProt C0KKU9); assay: Rhodamine 123 (Rh123) transport in canine ileal enteroids; assay type: cell-based; details: Rh123 1-50 μM, 30 min incubation, without verapamil
T1 construct: Therefore, P-gp of the enteroids have maintained their transportation ability; endogenous in cells; host or cells: canine ileal enteroids (3D organoids from adult intestinal stem cells of dogs)
T1 sequence (C0KKU9 1-1281): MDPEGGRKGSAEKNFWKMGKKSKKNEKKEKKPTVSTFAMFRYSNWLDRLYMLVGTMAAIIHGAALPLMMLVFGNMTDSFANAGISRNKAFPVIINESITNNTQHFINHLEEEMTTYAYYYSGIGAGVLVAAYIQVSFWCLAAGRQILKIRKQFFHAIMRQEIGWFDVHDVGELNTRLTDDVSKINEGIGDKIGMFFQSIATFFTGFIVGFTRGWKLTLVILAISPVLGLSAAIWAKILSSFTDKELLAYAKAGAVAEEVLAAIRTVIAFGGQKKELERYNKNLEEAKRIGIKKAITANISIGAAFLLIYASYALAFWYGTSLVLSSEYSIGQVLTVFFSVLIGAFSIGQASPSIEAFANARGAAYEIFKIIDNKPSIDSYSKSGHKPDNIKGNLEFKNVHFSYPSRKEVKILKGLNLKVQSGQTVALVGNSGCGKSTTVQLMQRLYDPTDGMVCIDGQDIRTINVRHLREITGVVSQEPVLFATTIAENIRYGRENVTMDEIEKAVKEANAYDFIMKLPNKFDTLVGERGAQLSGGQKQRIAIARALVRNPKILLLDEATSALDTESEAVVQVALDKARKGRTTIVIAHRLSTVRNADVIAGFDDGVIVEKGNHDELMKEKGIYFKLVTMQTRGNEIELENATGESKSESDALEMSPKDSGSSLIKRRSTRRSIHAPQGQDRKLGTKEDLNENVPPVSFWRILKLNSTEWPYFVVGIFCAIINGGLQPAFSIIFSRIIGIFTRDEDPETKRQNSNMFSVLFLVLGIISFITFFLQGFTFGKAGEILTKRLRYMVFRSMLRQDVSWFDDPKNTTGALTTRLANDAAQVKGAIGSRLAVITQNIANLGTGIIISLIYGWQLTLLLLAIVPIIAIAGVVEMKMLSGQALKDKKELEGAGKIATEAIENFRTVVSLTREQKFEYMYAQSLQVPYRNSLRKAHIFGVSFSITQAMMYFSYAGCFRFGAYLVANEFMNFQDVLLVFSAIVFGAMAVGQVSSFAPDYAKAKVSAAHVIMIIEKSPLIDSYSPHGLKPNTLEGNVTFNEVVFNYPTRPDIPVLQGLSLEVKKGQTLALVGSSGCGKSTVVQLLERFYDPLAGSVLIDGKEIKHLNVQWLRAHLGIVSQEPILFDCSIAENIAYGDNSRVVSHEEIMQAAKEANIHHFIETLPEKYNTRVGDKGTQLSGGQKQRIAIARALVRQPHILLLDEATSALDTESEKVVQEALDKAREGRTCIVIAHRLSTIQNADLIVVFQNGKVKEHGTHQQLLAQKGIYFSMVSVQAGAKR
Experimental: Canine ileal enteroids were passaged into 15 μL per well of […] ® in chambered cover glass system (Lab-Tek, Chambered Coverglass 8 well) and cultured with 300 μL per well of CMGF+ media for 2 days. […] Rh123 transport experiments were divided into: (1) Control [CTR] […] Enteroids were treated for 30 min and then washed with room-temperature PBS.
Confocal microscopy (SP5 X MP LAS X; Leica) at the Iowa State University Roy J. Carver High Resolution Microscopy Facility was used to acquire images to detect green fluorescence within the luminal aspect of the enteroids. Fluorescence intensity was controlled by the luminal area to control for the size variation of the enteroids and quantified using the ImageJ software.
Student's t-tests were used to compare study groups (CTR vs. TRT) for the various doses of Rh123. The Benjamini-Hochberg Procedure was performed to control the risk of false positive for multiple comparisons. All statistical analyses were perform using GraphPad Prism 8.2.1 (San Diego, Calif.) and R 3.5.1. P<0.05 were considered as statistically significant.

Question: For `NCCc1ccc(O)c(O)c1` [Dopamine], which “increase of Ki-67 IHC staining” value (TCC organoids [1]; 0.1, 1, 10 μM) is on record?
Answer: Its value is “about 2 fold”.

Question: How did the “TCC organoid cell viability (MTT)” value (TCC organoids [2]; 10 μM doxorubicin) turn out when `COc1cccc2c1C(=O)c1c(O)c3c(c(O)c1C2=O)C[C@@](O)(C(=O)CO)C[C@@H]3O[C@H]1C[C@H](N)[C@H](O)[C@H](C)O1` [Doxorubicin] was run?
Answer: Its value is 50 % of control.

Question: And the “effect on TCC organoid cell viability (MTT), other runs” value (TCC organoids [2]; sometimes observed)?
Answer: Its value is “small 20% effect or no effect”.

Question: What about the “Ki-67 IHC (proliferation)” value (TCC organoids [1]; 0.1 μM Dox, once) of the same compound?
Answer: The value was 10-20 % of control.

Question: `C[C@H](NC(=O)c1c(C(F)F)nn(C)c1Oc1cccc(C(F)(F)F)c1)c1ccc(C(=O)O)cc1` [E-7046] was tested. Which “effect on TCC cell viability (MTT assay)” value (TCC organoids [2]; other plate, dose not given) did it give?
Answer: Its value is “slight stimulatory effect”.

Question: Which results are given for `NS(=O)(=O)NCCNc1nonc1C(=NO)Nc1ccc(F)c(Br)c1` [Epacadostat]?
Answer: TCC cell viability (MTT assay) (TCC organoids [2]; 1 μM Epacadostat, 48 hours): about 80 % of control; decrease of TCC cell viability (MTT assay) (TCC organoids [2]; other doses of Epacadostat, 48 hours): not at the other doses

Question: `COc1cc(OC)cc(N(CCNC(C)C)c2ccc3ncc(-c4cnn(C)c4)nc3c2)c1` [Erdafitinib] was tested. Which “effect on TCC cell viability (MTT assay)” value (TCC organoids [2]; 1-10 μM) did it give?
Answer: The value was “no effect”.

Question: With `Oc1ccc(C2CNCCc3c2cc(O)c(O)c3Cl)cc1` (centres unmarked) [Fenoldopam] as the compound, how does the “lumens/holes in the TCC organoids” value (TCC organoids [3]) read?
Answer: Its value is “getting bigger”.

Question: And the “decrease of TCC organoid Ki-67 (proliferation)” value (TCC organoids [1]; 1 nM Fenoldopam)?
Answer: The value was “about 50%”.

Question: And the “effect on TCC organoid Ki-67 (proliferation)” value (TCC organoids [1]; 10 μM Fenoldopam)?
Answer: Its value is “did not have much effect”.

Question: Which “cell viability (MTT)” value (TCC organoids [2]; 1-10 μM, 48 hours or 4 days, organoid type not restated) does the source give for `CN1C(C(=O)Nc2ccccn2)=C(O)c2ccccc2S1(=O)=O` [Piroxicam] here?
Answer: The value was ≥ 80 % of control.

Question: What about the “decrease of Ki-67 staining” value (TCC organoids [1]; 0.1 μM Piroxicam) of the same compound?
Answer: The value was 50%.

Question: And the “increase of Ki-67 IHC staining” value (TCC organoids [1]; 1-10 μM Piroxicam)?
Answer: Its value is 2-3 fold.

Question: With `CC[C@]1(O)C[C@@H]2CN(CCc3c([nH]c4ccccc34)[C@@](C(=O)OC)(c3cc4c(cc3OC)N(C)[C@H]3[C@@](O)(C(=O)OC)[C@H](OC(C)=O)[C@]5(CC)C=CCN6CC[C@]43[C@@H]65)C2)C1` [Vinblastine] as the compound, how does the “effect on TCC cell viability (MTT assay)” value (TCC organoids [2]; other plate, dose not given) read?
Answer: Its value is “slight stimulatory effect”.

Question: `N.N.[Cl][Pt][Cl]` [cisplatin] was tested. Which “metabolic activity of UC organoids (MTT)” value (canine UC organoids) did it give?
Answer: The value was “reduced metabolic activity”.

Question: For Rhodamine 123 [Rh123], which Rh123 luminal transportation (P-gp) is on record?
Answer: The Rh123 luminal transportation was “significant dose response”.
